Source: patent US20230365554A1, “SUBSTITUTED PYRROLO-PYRIDINONE DERIVATIVES AND THERAPEUTIC USES THEREOF” (The Broad Institute, Inc., priority 2020, published 2023)

target: human CSNK1A1 (Homo sapiens (Human), UniProt P48729); test: CSNK1A1 Assay 2 (ADP-Glo, 1 μM ATP); assay type: biochemical; conditions: median, Table 2, read-out: CSNK1A1 Assay 2 IC50 [mol/l] (median)
Description: CSNK1A1-inhibitory activity of compounds of the present invention in presence of 1 μM adenosine-tri-phosphate (ATP) was quantified employing the CSNK1A1 assay as described in the following paragraphs. In essence, the enzyme activity is measured by quantification of the adenosine-di-phosphate (ADP), which is generated as a co-product of the enzyme reaction, via the “ADP-Glo™ Kinase Assay” kit from the company Promega. This detection system works as follows: In a first step the ATP not consumed in the kinase reaction is quantitatively converted to cAMP employing an adenylate cyclase (“ADP-Glo-reagent”), then the adenylate cyclase is stopped and the ADP generated in the kinase reaction converted to ATP which generates in a luciferase-based reaction a glow-luminescence signal (“Kinase Detection Reagent”).
Recombinant fusion protein of N-terminal Glutathion-S-Transferase (GST) and full-length human CSNK1A1, expressed by baculovirus infected insect cells and purified via Glutathion affinity chromatography, was purchased from Life Technologies (product no. PV4174) and used as enzyme. As substrate for the kinase reaction the biotinylated peptide biotin-Ahx-KRRRAL-pS-VASLPGL (C-terminus in amide form) was used which can be purchased e.g. from the company Biosyntan (Berlin-Buch, Germany).
For the assay 50 nl of a 100 fold concentrated solution of the test compound in DMSO was pipetted into a white 1536-well microtiter plate (Greiner Bio-One, Frickenhausen, Germany), 2 μL of a solution of CSNK1A1 in aqueous assay buffer [50 mM HEPES pH 7.5, 10% (v/v) glycerol, 10 mM MgCl2, 50 mM NaCl, 1 mM dithiothreitol, 0.01% (w/v) bovine serum albumin, 0.01% (v/v) Triton X-100] were added and the mixture was incubated for 15 min at 22° C. to allow pre-binding of the test compounds to the enzyme before the start of the kinase reaction. Then the kinase reaction was started by the addition of 3 μL of a solution of ATP (1.67 μM=>final conc. in the 5 μL assay volume is 1 μM) and peptide substrate (50 μM=>final conc. in the 5 μL assay volume is 30 μM) in assay buffer and the resulting mixture was incubated for a reaction time of 30 min at 22° C. The concentration of CSNK1A1 was adjusted depending of the activity of the enzyme lot and was chosen appropriate to have the assay in the linear range, a typical concentrations are about 0.0375 ng/μL. The reaction was stopped by the addition of 2.5 μL of “ADP-Glo-reagent” (1:1.5 fold diluted with water) and the resulting mixture was incubated at 22° C. for 1 h to convert the ATP not consumed in the kinase reaction completely […]. Subsequently 2.5 μL of the “kinase detection reagent” (1.2 fold more concentrated than recommended by the producer) were added, the resulting mixture was incubated at 22° C. for 1 h and then the luminescence measured with a suitable measurement instrument (e.g. Viewlux™ from Perkin-Elmer). The amount of emitted light was taken as a measure for the amount of ADP generated and thereby for the activity of the CSNK1A1.
The data were normalised (enzyme reaction without inhibitor=0% inhibition, all other assay components but no enzyme=100% inhibition).

Sequence of human CSNK1A1 (P48729 whole entry): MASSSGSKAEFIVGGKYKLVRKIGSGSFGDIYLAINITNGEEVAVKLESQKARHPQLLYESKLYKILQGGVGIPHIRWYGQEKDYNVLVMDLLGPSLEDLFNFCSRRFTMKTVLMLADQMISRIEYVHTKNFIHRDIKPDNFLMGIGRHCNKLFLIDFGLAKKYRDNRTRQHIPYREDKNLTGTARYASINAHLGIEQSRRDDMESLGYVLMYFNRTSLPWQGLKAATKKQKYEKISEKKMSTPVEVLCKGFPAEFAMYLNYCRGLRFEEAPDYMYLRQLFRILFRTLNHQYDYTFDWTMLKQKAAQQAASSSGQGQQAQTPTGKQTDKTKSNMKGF

Compound | IC50 [nM]
CN1CC(CC(F)F)c2[nH]c(-c3ccnc(NC(=O)Cc4ccc(F)cc4)c3)c(Nc3ccccc3)c2C1=O (racemic) [Example 42, N-{4-[3-anilino-7-(2,2-difluoroethyl)-5-methyl-4-oxo-4,5,6,7-tetrahydro-1H-pyrrolo[3,2-c]pyridin-2-yl]pyridin-2-yl}-2-(4-fluorophenyl)acetamide] | 1.8
CN1CC(CC(F)(F)F)c2[nH]c(-c3ccnc(NC(=O)Cc4ccc(F)cc4)c3)c(Nc3cscn3)c2C1=O (racemic) [Example 46, 2-(4-fluorophenyl)-N-{4-[(7RS)-5-methyl-4-oxo-3-(1,3-thiazol-4-ylamino)-7-(2,2,2-trifluoroethyl)-4,5,6,7-tetrahydro-1H-pyrrolo[3,2-c]pyridin-2-yl]pyridin-2-yl}acetamide] | 23
CN1CC(CC2CC2)c2[nH]c(-c3ccnc(NC(=O)Cc4ccc(F)cc4)c3)c(Nc3cscn3)c2C1=O (racemic) [Example 49, N-{4-[(7RS)-7-(cyclopropylmethyl)-5-methyl-4-oxo-3-(1,3-thiazol-4-ylamino)-4,5,6,7-tetrahydro-1H-pyrrolo[3,2-c]pyridin-2-yl]pyridin-2-yl}-2-(4-fluorophenyl)acetamide] | 5.9
CN1CC(CC(F)(F)F)c2[nH]c(-c3ccnc(NC(=O)C(CC(F)F)c4ccc(F)cc4)c3)c(Nc3cscn3)c2C1=O (racemic) [Example 52, (2RS)-4,4-difluoro-2-(4-fluorophenyl)-N-{4-[(7RS)-5-methyl-4-oxo-3-[(1,3-thiazol-4-yl)amino]-7-(2,2,2-trifluoroethyl)-4,5,6,7-tetrahydro-1H-pyrrolo[3,2-c]pyridin-2-yl]pyridin-2-yl}butanamide] | 7.9
CCC1CNC(=O)c2c1[nH]c(-c1ccnc(NC(=O)Cc3ccc(F)cc3)c1)c2Nc1ccccc1 (single isomer, unassigned) [Example 2, N-{4-[3-anilino-7-ethyl-4-oxo-4,5,6,7-tetrahydro-1H-pyrrolo[3,2-c]pyridin-2-yl]pyridin-2-yl}-2-(4-fluorophenyl)acetamide] | 3.3
CCC1CNC(=O)c2c1[nH]c(-c1ccnc(NC(=O)Cc3ccc(F)cc3)c1)c2Nc1ccccc1 (single isomer, unassigned) [Example 3, N-{4-[3-anilino-7-ethyl-4-oxo-4,5,6,7-tetrahydro-1H-pyrrolo[3,2-c]pyridin-2-yl]pyridin-2-yl}-2-(4-fluorophenyl)acetamide] | 3.8
Cc1cn(C)c(=O)c2c(Nc3ccccc3)c(-c3ccnc(NC(=O)C(CC(F)F)c4ccc(F)cc4)c3)[nH]c12 (single isomer, unassigned) [Example 12, N-[4-(3-anilino-5,7-dimethyl-4-oxo-4,5-dihydro-1H-pyrrolo[3,2-c]pyridin-2-yl)pyridin-2-yl]-4,4-difluoro-2-(4-fluorophenyl)butanamide] | 180
Cc1cn(C)c(=O)c2c(Nc3ccccc3)c(-c3ccnc(NC(=O)C(CC(F)F)c4ccc(F)cc4)c3)[nH]c12 (single isomer, unassigned) [Example 13, N-[4-(3-anilino-5,7-dimethyl-4-oxo-4,5-dihydro-1H-pyrrolo[3,2-c]pyridin-2-yl)pyridin-2-yl]-4,4-difluoro-2-(4-fluorophenyl)butanamide] | 19
CN1CC(CC(F)(F)F)c2[nH]c(-c3ccnc(NC(=O)Cc4ccc(F)cc4)c3)c(Nc3ccccc3)c2C1=O (single isomer, unassigned) [Example 15, N-{4-[3-anilino-5-methyl-4-oxo-7-(2,2,2-trifluoroethyl)-4,5,6,7-tetrahydro-1H-pyrrolo[3,2-c]pyridin-2-yl]pyridin-2-yl}-2-(4-fluorophenyl)acetamide] | 9.4
CN1CC(CC(F)(F)F)c2[nH]c(-c3ccnc(NC(=O)Cc4ccc(F)cc4)c3)c(Nc3ccccc3)c2C1=O (single isomer, unassigned) [Example 16, N-{4-[3-anilino-5-methyl-4-oxo-7-(2,2,2-trifluoroethyl)-4,5,6,7-tetrahydro-1H-pyrrolo[3,2-c]pyridin-2-yl]pyridin-2-yl}-2-(4-fluorophenyl)acetamide] | 4.3
CN1CC(CC2CC2)c2[nH]c(-c3ccnc(NC(=O)Cc4ccc(F)cc4)c3)c(Nc3ccccc3)c2C1=O (single isomer, unassigned) [Example 19, N-{4-[3-anilino-7-(cyclopropylmethyl)-5-methyl-4-oxo-4,5,6,7-tetrahydro-1H-pyrrolo[3,2-c]pyridin-2-yl]pyridin-2-yl}-2-(4-fluorophenyl)acetamide] | 3.9
CN1CC(CC2CC2)c2[nH]c(-c3ccnc(NC(=O)Cc4ccc(F)cc4)c3)c(Nc3ccccc3)c2C1=O (single isomer, unassigned) [Example 20, N-{4-[3-anilino-7-(cyclopropylmethyl)-5-methyl-4-oxo-4,5,6,7-tetrahydro-1H-pyrrolo[3,2-c]pyridin-2-yl]pyridin-2-yl}-2-(4-fluorophenyl)acetamide] | 17
C[C@H](C(=O)Nc1cc(-c2[nH]c3ccn(C)c(=O)c3c2Nc2ccccc2)ccn1)c1ccc(F)cc1 (single isomer, unassigned) [Example 26] | 5.9
C[C@@H](C(=O)Nc1cc(-c2[nH]c3ccn(C)c(=O)c3c2Nc2ccccc2)ccn1)c1ccc(F)cc1 (single isomer, unassigned) [Example 27] | 21
Cn1ccc2[nH]c(-c3ccnc(NC(=O)C(CC(F)F)c4ccc(F)cc4)c3)c(Nc3ccccc3)c2c1=O (single isomer, unassigned) [Example 29, N-[4-(3-anilino-5-methyl-4-oxo-4,5-dihydro-1H-pyrrolo[3,2-c]pyridin-2-yl)pyridin-2-yl]-4,4-difluoro-2-(4-fluorophenyl)butanamide] | 50
Cn1ccc2[nH]c(-c3ccnc(NC(=O)C(CC(F)F)c4ccc(F)cc4)c3)c(Nc3ccccc3)c2c1=O (single isomer, unassigned) [Example 30, N-[4-(3-anilino-5-methyl-4-oxo-4,5-dihydro-1H-pyrrolo[3,2-c]pyridin-2-yl)pyridin-2-yl]-4,4-difluoro-2-(4-fluorophenyl)butanamide] | 3.7
Cn1cc(CC(F)(F)F)c2[nH]c(-c3ccnc(NC(=O)C(CC(F)F)c4ccc(F)cc4)c3)c(Nc3ccccc3)c2c1=O (single isomer, unassigned) [Example 36, N-{4-[3-anilino-5-methyl-4-oxo-7-(2,2,2-trifluoroethyl)-4,5-dihydro-1H-pyrrolo[3,2-c]pyridin-2-yl]pyridin-2-yl}-4,4-difluoro-2-(4-fluorophenyl)butanamide] | 6.2
Cn1cc(CC(F)(F)F)c2[nH]c(-c3ccnc(NC(=O)C(CC(F)F)c4ccc(F)cc4)c3)c(Nc3ccccc3)c2c1=O (single isomer, unassigned) [Example 37, N-{4-[3-anilino-5-methyl-4-oxo-7-(2,2,2-trifluoroethyl)-4,5-dihydro-1H-pyrrolo[3,2-c]pyridin-2-yl]pyridin-2-yl}-4,4-difluoro-2-(4-fluorophenyl)butanamide] | 12
Cc1cn(C)c(=O)c2c(Nc3ccccc3)c(-c3ccnc(NC(=O)C(C)c4ccc(F)cc4)c3)[nH]c12 (single isomer, unassigned) [Example 40, N-[4-(3-anilino-5,7-dimethyl-4-oxo-4,5-dihydro-1H-pyrrolo[3,2-c]pyridin-2-yl)pyridin-2-yl]-2-(4-fluorophenyl)propanamide] | 15
